For data set [1] the following is noted: risk of Torsades de Pointes, from www.torsades.org; cited from earlier work.
In data set [2] the target is T1, HERG channels (Homo sapiens, UniProt Q12809).
Data set [3] deals with T2, human MCH-1 receptor (Homo sapiens, UniProt Q99705).
T2 construct: expressed in transfected cells; host or cells: transiently transfected COS-7 cells or stably transfected CHO cells (pcDNA3.1)
As to the kind of experiment: Phosphatidylinositol (IP3) assay, MCH-stimulated turnover. Format: cell-based. How it is done:
(§1) Transfections and Tissue Culture—The cDNA encoding the human MCH-1 receptor was cloned from a human brain cDNA library and cloned into the eukaryotic expression vector pcDNA3.1 (Invitrogen). Assays were performed on transiently transfected COS-7 cells or stably transfected CHO (Chinese Hamster Ovary) cells, expressing the human MCH-1 receptor in pcDNA3.1. […] Clones were screened by a MCH receptor radioligand binding assay (as described below).
Phosphatidylinositol assay—To assay phosphatidylinositol turnover, transiently transfected COS-7 cells or stably transfected CHO cells, expressing human MCH-1 receptor (2×10^5 cells/well) were incubated for 24 h with 5 μCi of (^3H]-myo-inositol (Amersham Pharmacia Biotech) in 0.5 ml inositol-free culture medium. Cells were washed twice in PI-buffer: 20 mM HEPES, pH 7.4, supplemented with 140 mM NaCl, 5 mM KCl, 1 mM MgSO4, 1 mM CaCl2, 10 mM glucose, 0.02% (w/v) bovine serum; and were incubated in 0.5 ml PI-buffer supplemented with 10 mM LiCl at 37° C. for 45 min.
Phosphatidylinositol turnover was stimulated by submaximal concentrations of MCH, i.e. 10 nM in the presence of increasing amounts of ligand. The ligand was added 5 min. before adding the agonist (MCH). Cells were extracted with 10 mM ice-cold Formic acid, and the generated [^3H]-inositol phosphates were purified on Bio-Rad AG 1-X8 anion-exchange resin. Determinations were made in duplicate. PI data were analyzed and IC50 values determined by non-linear regression using the Prism software (GraphPad software, San Diego).

Data set [4] concerns the target T2, human MCH-1 receptor. As to the kind of experiment: MCH receptor binding ([125I]-MCH competition binding / SPA). The procedure: as §1
Radioligand Binding Assay—Transiently transfected COS-7 cells or stably transfected CHO cells, expressing human MCH-1 receptor were seeded in multi-well culture plates one day before the assay. The number of cells per well was determined by the apparent expression efficiency of the cell line aiming at 5-10% binding of the added radioligand. […] The assay was performed in duplicate. Nonspecific binding was determined as the binding in the presence of 1 μM MCH (Bachem). Binding data were analyzed and IC50 values determined by non-linear regression using the Prism software (GraphPad software, San Diego). Values of the dissociation and inhibition constants (Kd and Ki) were estimated from competition binding using the equations Kd=IC50-L and Ki=IC50/(1+L/Kd), respectively, where L is the concentration of radioligand.
Membranes and beads were pre-incubated for 20 min. […] Moreover, CHO-K1 membranes expressing the hMCH receptor were purchased from Euroscreen (ES-370-M) and a final concentration of 2 μg/well were used. Binding data were analyzed and IC50 values determined by non-linear regression using the Prism software (GraphPad software, San Diego). Values of the inhibition constant (Ki) were estimated from competition binding using the equation Ki=IC50/(1+L/Kd), where L and Kd are the concentration and affinity constant, respectively, of the radioligand.

Data set [5] addresses T1, HERG channels. In words: HERG selectivity method, whole-cell patch-clamp recordings. (In patch-clamp work, channel activity is measured electrically.)
Setting [6] is: stimulated by 10 nM MCH, read-out: IP3 IC50.

The values below come from patent US20060111357A1, “Quinoline compounds for use in mch receptor related disorders” (priority 2003, published 2006).

Usually IC50 stands for the midpoint of a concentration-inhibition curve. The Ki is the equilibrium dissociation constant of an inhibitor or competing ligand from its target.

Read-outs that look alike come from different tables or passages of the source.
Wherever Risk Group is given: key: 1: Drugs that are generally accepted by authorities to have a risk of Torsades de Pointes (TdP); 2: Drugs that in some reports may be associated with TdP but at this time lack substantial evidence; 4: Drugs that, in some reports, have been weakly associated with TdP but that when used in usual dosages are unlikely to be a risk for TdP.

T1 sequence (Q12809 whole entry): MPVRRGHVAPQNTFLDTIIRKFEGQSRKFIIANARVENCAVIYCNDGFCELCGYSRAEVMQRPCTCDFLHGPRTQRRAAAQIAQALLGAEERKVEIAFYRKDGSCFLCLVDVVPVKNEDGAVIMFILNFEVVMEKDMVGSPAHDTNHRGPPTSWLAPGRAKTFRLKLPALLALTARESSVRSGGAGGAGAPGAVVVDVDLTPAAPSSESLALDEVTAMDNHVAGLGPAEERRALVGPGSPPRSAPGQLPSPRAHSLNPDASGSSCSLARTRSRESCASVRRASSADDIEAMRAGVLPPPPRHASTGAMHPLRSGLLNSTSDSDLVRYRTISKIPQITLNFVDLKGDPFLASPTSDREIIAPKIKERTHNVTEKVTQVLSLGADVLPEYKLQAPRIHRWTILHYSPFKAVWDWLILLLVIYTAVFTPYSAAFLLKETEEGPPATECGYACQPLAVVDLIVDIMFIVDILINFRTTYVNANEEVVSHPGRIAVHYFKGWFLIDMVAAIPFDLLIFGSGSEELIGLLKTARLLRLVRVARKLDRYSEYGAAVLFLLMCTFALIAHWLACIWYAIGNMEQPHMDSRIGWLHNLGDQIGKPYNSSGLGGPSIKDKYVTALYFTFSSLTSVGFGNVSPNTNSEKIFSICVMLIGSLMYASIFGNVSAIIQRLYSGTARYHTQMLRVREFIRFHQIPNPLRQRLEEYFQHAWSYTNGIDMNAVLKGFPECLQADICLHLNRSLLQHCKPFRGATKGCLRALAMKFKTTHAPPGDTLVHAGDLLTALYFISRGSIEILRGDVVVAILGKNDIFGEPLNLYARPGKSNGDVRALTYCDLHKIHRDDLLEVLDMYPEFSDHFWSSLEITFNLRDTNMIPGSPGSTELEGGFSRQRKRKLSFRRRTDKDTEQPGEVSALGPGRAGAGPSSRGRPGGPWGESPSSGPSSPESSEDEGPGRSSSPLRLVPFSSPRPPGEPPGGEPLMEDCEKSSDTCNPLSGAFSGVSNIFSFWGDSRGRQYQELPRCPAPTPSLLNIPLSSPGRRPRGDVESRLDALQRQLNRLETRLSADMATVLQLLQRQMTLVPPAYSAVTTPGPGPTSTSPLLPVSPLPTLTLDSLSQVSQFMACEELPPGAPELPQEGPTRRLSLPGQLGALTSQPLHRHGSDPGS
T2 sequence (Q99705 whole entry): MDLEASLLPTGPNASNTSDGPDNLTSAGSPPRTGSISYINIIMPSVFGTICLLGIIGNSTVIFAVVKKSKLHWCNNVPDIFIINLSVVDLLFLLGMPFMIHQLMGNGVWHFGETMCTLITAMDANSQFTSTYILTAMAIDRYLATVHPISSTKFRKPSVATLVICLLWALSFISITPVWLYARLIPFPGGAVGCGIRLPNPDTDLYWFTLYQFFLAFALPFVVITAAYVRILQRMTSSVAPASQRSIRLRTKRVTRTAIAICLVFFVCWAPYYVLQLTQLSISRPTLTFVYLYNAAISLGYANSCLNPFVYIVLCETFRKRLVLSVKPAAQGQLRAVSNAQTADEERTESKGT

Consider `CC(CN(C)C)CN1c2ccccc2CCc2ccccc21` (stereo not drawn) [Trimipramine], for which the “Risk Group” value in data set [1] is on record as 4. Further, the “Ki in μM ± S.D. (#)” value at HERG channels [2] was “No effect at 10”. `CC(C)COCC(CN(Cc1ccccc1)c1ccccc1)N1CCCC1` (stereo not drawn) [Bepridil]: the “Risk Group” value in data set [1] was 1. In the case of `CNCCC(Oc1ccc(C(F)(F)F)cc1)c1ccccc1` (stereo not drawn) [Fluoxetine], the “Risk Group” value in data set [1] is recorded as 4. On to `Cc1cc(OCCN(C)C)nc2ccc(NC(=O)COc3ccc(Cl)cc3Cl)cc12` [Example 76, 2-(2,4-Dichloro-phenoxy)-N-[2-(2-dimethylamino-ethoxy)-4-methyl-quinolin-6-yl]-acetamide], for which the half-maximal inhibitory concentration (IC50) at human MCH-1 receptor [3] was 135 nM. Consider `Cc1cc(N2CCCNCC2)nc2ccc(NC(=O)COc3ccc(OC(F)(F)F)cc3)cc12` [Example 25, N-(2-[1,4]Diazepan-1-yl-4-methylquinolin-6-yl)-2-(4-trifluoromethoxyphenoxy)-acetamide], for which the concentration for half-maximal inhibition (IC50) came out at 12 nM at human MCH-1 receptor [4] and 71 nM on human MCH-1 receptor [3] (setting [6]). As for `CCN1CCCC1CNc1cc(C)c2cc(NC(=O)/C=C/c3ccc(OC(F)(F)F)cc3)ccc2n1` (stereo not drawn) [Example 62, (E)-N-{2-[(1-Ethyl-pyrrolidin-2-ylmethyl)-amino]-4-methyl-quinolin-6-yl}-3-(4-trifluoromethoxy-phenyl)-acrylamide], the figures for the IC50 at human MCH-1 receptor [4] and on human MCH-1 receptor [3] (setting [6]) were 13 nM and 10 nM, respectively. Take `Cc1cc(NCCN(C(C)C)C(C)C)nc2ccc(NC(=O)COc3ccc(OC(F)(F)F)cc3)cc12` [Example 40, N-[2-(2-Diisopropylamino-ethylamino)-4-methyl-quinolin-6-yl]-2-(4-trifluoromethoxy-phenoxy)-acetamide]: on human MCH-1 receptor [4], the IC50 is 22 nM.

For `Cc1cc(N2CCN(C)CC2)nc2ccc(NC(=O)/C=C/c3ccc(OC(F)(F)F)cc3)cc12` [Example 16, (E)-N-[4-Methyl-2-(4-methyl-piperazin-1-yl)-quinolin-6-yl]-3-(4-trifluoromethoxy-phenyl)-acrylamide], the figures for the IC50 at human MCH-1 receptor [4] and on human MCH-1 receptor [3] (setting [6]) were 11 nM and 42 nM, respectively. Consider `CN(C)CCCN1c2ccccc2Sc2ccc(Cl)cc21` [Chlorpromazine], for which the “Risk Group” value in data set [1] is given as 1. As to `Cc1nc(N(C)CCCN(C)C)nc2ccc(NC(=O)COc3ccc(Cl)cc3Cl)cc12` [Example 137, 2(2,4-Dichlorophenoxy)N{2[(3-dimethylaminopropyl)methyl-amino]-4-methyl-quinazolin-6-yl}-acetamide], the values for the IC50 on human MCH-1 receptor [4] and on human MCH-1 receptor [3] (setting [6]) were 10 nM and 63 nM, respectively. On HERG channels [5], `OCCN1CCN(CCCN2c3ccccc3Sc3ccc(C(F)(F)F)cc32)CC1` [Fluphenazine] showed a Ki of 2.5 ± 0.57 µM. As to `O=c1[nH]c2ccccc2n1C1CCN(CCCC(c2ccc(F)cc2)c2ccc(F)cc2)CC1` [Pimozide], in data set [1], the “Risk Group” value is 1. On to `Cc1cc(NCC(C)(C)CN(C)C)nc2ccc(NC(=O)COc3ccc(OC(F)(F)F)cc3)cc12` [Example 45, N-[2-(3-Dimethylamino-2,2-dimethyl-propylamino)-4-methyl-quinolin-6-yl]-2-(4-trifluoromethoxy-phenoxy)-acetamide], for which the IC50 was 21 nM on human MCH-1 receptor [4] and 190 nM on human MCH-1 receptor [3] (setting [6]). On the same counts, the results for `Cc1cc(N2CCN(C)CC2)nc2ccc(NC(=O)C(C)Oc3ccc(Cl)cc3Cl)cc12` (stereo not drawn) are 280 nM and 2000 nM.

For the compound `CN(C)CCCN1c2ccccc2CCc2ccccc21` [Imipramine], in data set [1], the “Risk Group” value is recorded as 4. Turning to `CN1CCN(CC/C=C2/c3ccccc3Sc3ccc(S(=O)(=O)N(C)C)cc32)CC1` [Cis-Thiothixene], the Ki on HERG channels [5] (read-out: Ki in μM ± S.D. (#), HEK 293 cells stably expressing HERG+KCNE1, tail-current block, room temperature, Ki=koff/kon) was found to be 8.6 ± 2.7 µM. For `Cc1cc(N2CCC(N)CC2)nc2ccc(NC(=O)COc3ccc(Cl)cc3Cl)cc12` [Example 33, N-[2-(4-Amino-piperidin-1-yl)-4-methyl-quinolin-6-yl]-2-(2,4-dichloro-phenoxy)-acetamide], the values for the half-maximal inhibitory concentration (IC50) on human MCH-1 receptor [4] and on human MCH-1 receptor [3] (setting [6]) were 41 nM and 63 nM, respectively. On the same counts, the results for `Cc1cc(N(C)CCN(C)C)nc2ccc(NC(=O)c3ccc(-c4ccc(C(F)(F)F)cc4)cc3)cc12` [Example 183, 4′-Trifluoromethyl-biphenyl-4-carboxylic acid {2-[(2-dimethylamino-ethyl)-methyl-amino]-4-methyl-quinolin-6-yl}-amide] are 63 nM and 474 nM. Regarding `CN(C)CCC=C1c2ccccc2COc2ccccc21` [Doxepine], the “Risk Group” value in data set [1] is 4. As to `CN1CCN(C(c2ccccc2)c2ccc(Cl)cc2)CC1` (stereo not drawn) [Chlorcyclizine], at HERG channels [5], the Ki amounted to 4 ± 1.4 µM. For the compound `Cc1nc2n(c(=O)c1CCN1CCC(c3noc4cc(F)ccc34)CC1)CCCC2` [Risperidone], the “Risk Group” value in data set [1] is recorded as 2. `CCCCc1oc2ccccc2c1C(=O)c1cc(I)c(OCCN(CC)CC)c(I)c1` [Amiodarone]: the “Risk Group” value in data set [1] was 1. For the compound `Cc1cc(NCCN2CCOCC2)nc2ccc(NC(=O)COc3ccc(OC(F)(F)F)cc3)cc12` [Example 42, N-[4-Methyl-2-(2-morpholin-4-yl-ethylamino)-quinolin-6-yl]-2-(4-trifluoromethoxy-phenoxy)-acetamide], the IC50 was 10 nM at human MCH-1 receptor [4] and 16 nM at human MCH-1 receptor [3] (setting [6]). Take `CC(=O)N1CCN(c2ccc(OCC3COC(Cn4ccnc4)(c4ccc(Cl)cc4Cl)O3)cc2)CC1` (stereo not drawn) [Ketoconazole]: the “Risk Group” value in data set [1] is 4.

As to `CNCCCN1c2ccccc2CCc2ccccc21` [Desipramine], the “Risk Group” value in data set [1] is 4. With `CN(C)CCC=C1c2ccccc2CCc2ccccc21` [Amitriptyline], the “Risk Group” value in data set [1] was 4. For `Clc1ccc2c(c1)C(N1CCNCC1)=Nc1ccccc1O2` [Amoxapine], the “Risk Group” value in data set [1] is 4. Regarding `O=C(CCCN1CCC(O)(c2ccc(Cl)cc2)CC1)c1ccc(F)cc1` [Haloperidole], in data set [1], the “Risk Group” value was 1. At HERG channels [2], this compound showed an inhibition constant (Ki) of 170 nM. In the case of `Cc1cc(N(C)CCN(C)C)nc2ccc(NC(=O)CCc3ccc(OC(F)(F)F)cc3)cc12` [Example 98, N-{2-[(2-Dimethylamino-ethyl)-methyl-amino]-4-methyl-quinolin-6-yl}-3-(4-trifluoromethoxy-phenyl)-propionamide], the IC50 at human MCH-1 receptor [4] was 37 nM; on human MCH-1 receptor [3] (setting [6]), 720 nM. As to `Cc1cc(N2CCN(CCO)CC2)nc2ccc(NC(=O)COc3ccc(OC(F)(F)F)cc3)cc12` [Example 38, N-{2-[4-(2-Hydroxy-ethyl)-piperazin-1-yl]-4-methyl-quinolin-6-yl}-2-(4-trifluoromethoxy-phenoxy)-acetamide], the IC50 at human MCH-1 receptor [4] was 50 nM; on human MCH-1 receptor [3] (setting [6]), 23 nM. Regarding `CC(C)NCC(O)c1ccc(NS(C)(=O)=O)cc1` (racemic) [(±) sotalol], in data set [1], the “Risk Group” value is listed as 1. Besides, the “Ki in μM ± S.D. (#)” value on HERG channels [2] is on record as “No effect at 100 (5)”.
